“Also recorded” adds a separate entry of the source. Read-outs that look alike come from different tables or passages of the source.
Columns and labels:
melanoma cell line A375 = tested on: melanoma cell line A375; design: method as in doi:10.1016/j.phytol.2021.07.008; details: A375, MTT method; cited from earlier work
[1] = Distribution coefficient, shake-flask n-octanol/buffered aqueous solution pH 7.40; format: physicochemical; details: n-octanol/water partitioning, pH 7.40, 25 °C; for logD at 3 h: n-octanol/buffered aqueous solution, pH 7.4, read-out: log D7.4
Description: The distribution coefficients (D7.4) of the compounds were determined by the shake-flask method in n-octanol/buffered aqueous solution at pH 7.40 (25.0 ± 0.2 °C). The ligand precursors and the complexes were dissolved in 10 mM HEPES presaturated with n-octanol. The aqueous solution and n-octanol (1:1 ratio) were gently mixed with a 360° vertical rotation (∼20 rpm) for 3 h; then, the samples were centrifuged at 3000 rpm for 5 min. Two phases were separated, and their UV–vis spectra were recorded. The D7.4 value was calculated as follows [drawing 1] 1

[2] = Thermodynamic solubility in water at pH 7.40; format: physicochemical; details: pH 7.40, 10 mM HEPES, 37 °C, 24 h incubation
Description: Thermodynamic solubility (S) of the free ligands and complexes was determined for the saturated solutions in water at pH 7.40 in 10 mM HEPES at 37.0 ± 0.2 °C. The concentration of the compounds was determined by UV–vis spectrophotometry using stock solutions with known concentrations dissolved in 100% DMSO, 50%, and 25% (v/v) DMSO/buffered aqueous solutions for the calibration.

[3] = molecular target: T1, bovine serum albumin (BSA) (Bos taurus, UniProt P02769); assay: Fluorescence quenching titration of BSA; format: binding
T1 construct: bovine serum albumin (BSA) stock solutions of lyophilized protein
T1 sequence (P02769 25-607): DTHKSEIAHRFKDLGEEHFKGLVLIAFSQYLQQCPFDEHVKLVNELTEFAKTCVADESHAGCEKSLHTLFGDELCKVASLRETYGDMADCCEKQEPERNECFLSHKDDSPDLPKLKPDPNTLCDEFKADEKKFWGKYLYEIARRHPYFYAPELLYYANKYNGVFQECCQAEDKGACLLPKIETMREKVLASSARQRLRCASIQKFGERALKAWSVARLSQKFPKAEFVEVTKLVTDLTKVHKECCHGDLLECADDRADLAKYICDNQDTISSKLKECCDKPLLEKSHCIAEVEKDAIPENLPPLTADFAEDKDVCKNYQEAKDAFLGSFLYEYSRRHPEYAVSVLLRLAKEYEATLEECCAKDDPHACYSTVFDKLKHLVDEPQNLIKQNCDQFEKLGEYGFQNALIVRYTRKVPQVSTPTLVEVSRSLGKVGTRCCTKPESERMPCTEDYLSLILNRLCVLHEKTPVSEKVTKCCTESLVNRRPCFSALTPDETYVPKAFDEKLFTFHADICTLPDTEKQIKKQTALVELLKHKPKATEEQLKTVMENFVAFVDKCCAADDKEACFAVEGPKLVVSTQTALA
Description: The steady-state fluorescence emission spectra of a solution of 0.5–1.0 μM BSA (in HEPES buffer) were recorded between 310 and 500 nm with λexc = 295 nm after additions of the complexes’ solutions directly to the cuvette (optical path of 1.0 cm). The UV–vis spectrum of each sample was used to make corrections and minimize the inner filter and reabsorption interferences.[22] Solutions with the same concentration of complex and no BSA were recorded and used as blank spectra.
Data were analyzed by fitting a second-order equation, which accounts for both static and dynamic quenching [drawing 2] 2 where I0 and I are the fluorescence intensities in the absence and presence of quencher (Q), and KS and KD are the static and dynamic quenching constants, respectively.
The Stern–Volmer equation was used for low quencher concentrations to determine the Stern–Volmer quenching constant (KSV), a measure of the quenching strength [drawing 3] 3

[4] = tested on: Human malignant melanoma A375 cells; assay: Antiproliferative activity in A375 cells, CellTiter-Glo 3D luminescent method; format: cell-based
Description: (§1) Cell culture media and antibiotics were obtained from Gibco (Thermo Fisher Scientific). Human malignant melanoma A375 cells (ATCC CRL-1619TM) and human keratinocytes HaCaT (CLS 300493) were cultured in DMEM-Glutamax supplemented with 10% fetal bovine serum (FBS), hereafter designated as complete medium. For human keratinocytes, 100 IU/mL of penicillin and 100 μg/mL of streptomycin (Gibco, Thermo Fisher Scientific) were also used. The cell lines were kept at 37 °C with a 5% CO2 atmosphere. The maintenance of cell cultures was performed every 2–3 days until the cells reached a confluency of about 80%.
The CellTiter-Glo 3D kit (Promega) was used to assess the viability of the A375 cells in the presence or absence (negative control) of increasing concentrations of the free ligands and complexes. The kit detects adenosine triphosphate, which is proportional to the number of viable cells, therefore allowing the assessment of cell proliferation. First, A375 cells were plated at a concentration of 5 × 10^4 cells/mL in 96-well plates (200 μL/well) and cultured for 24 h in the culture conditions described above. Then, cells were incubated with the free ligands (1–100 μM), Zn(II) complexes (1 to 80 μM), and Cu(II) complexes (1–20 μM) in 96-well plates. After an incubation period of 48 h, 100 μL of each well was discarded. Then, 40 μL of CellTiter-Glo 3D reagent was added into each well and the contents were mixed vigorously for 15 min to induce cell lysis at room temperature. Finally, the luminescence was measured using a Varioskan Lux multimode plate reader (Thermo Scientific). Values presented are mean ± standard deviation (SD) of two independent biological experiments with 4 technical replicates per condition.
(§2) GraphPad Prism8 (GraphPad Software, San Diego, CA) was used to analyze cell proliferation, and values were plotted and fit a standard log dose–response curve to generate IC50 values.

[5] = tested on: human keratinocytes HaCaT; assay: MTT assay in nontumorigenic HaCaT cells; format: cell-based; details: for IC50: HaCaT, 48 h incubation, MTT colorimetric method; for Selectivity index (SI): IC50 HaCaT/IC50 A375
Description: as §1
The MTT assay was used to assess cell viability in the presence of increasing concentrations of selected compounds. Briefly, HaCaT cells were plated at a concentration of 5 × 10^4 cells/mL in 96-well plates (200 μL/well) and cultured for 24 h in the culture conditions described above. Then, cells were incubated with free ligands and metal complexes at concentrations ranging from 5 to 30 μM. Negative controls were cells maintained in complete culture medium. The culture medium was discarded after 48 h, cells were washed with PBS (2 times), and then 50 μL of MTT at 0.5 mg/mL in incomplete medium was added to all wells. After 2–3 h of incubation period at 37 °C, 100 μL of DMSO was added to each well to solubilize the formazan crystals, and absorbance was measured at 570 nm using a microplate reader Model 680 (Bio-Rad, CA). Two independent experiments were carried out, with six replicates per condition.
as §2

[6] = Proton dissociation constants by UV–vis spectrophotometric titrations; format: physicochemical; details: water with 0.10 M KCl, I = 0.1 M KCl, t = 25.0 °C
Description: (§3) The UV–vis titrations were performed with a 0.10 M carbonate-free KOH solution using a Metrohm 665 Dosimat buret and an Orion 710A pH-meter equipped with a Metrohm combined electrode (type 6.0234.100). […] The average water ionization constant (pKw) is 13.76 ± 0.05. The path length was 1 cm, and the temperature was 25.0 ± 0.1 °C. An ionic strength of 0.10 M KCl was used to keep the activity coefficients constant. The samples were deoxygenated by bubbling argon through the system for 10 min. Spectrophotometric titrations were carried out using an Agilent Cary 8454 diode array spectrophotometer (Santa Clara, CA) in water on samples containing the ligands at 60 μM, in the pH range from 1.5 to 11.5 in the absence or in the presence of 1, 0.5, or 0.25 equiv of Cu(II) and Zn(II) ions, using 10.00 mL of sample volumes. Proton dissociation constants (Ka) of the ligand precursors, as well as stoichiometry and overall stability constants (β) of the metal complexes, were calculated by the computer program PSEQUAD.[20]

[7] = Overall stability (formation) constants of Cu(II) complexes by UV–vis spectrophotometric titrations; format: physicochemical; details: I = 0.1 M KCl, t = 25.0 °C; for log β (CuL2): bis-ligand Cu(II) complex; for log β (CuL): mono-ligand Cu(II) complex
Description: as §3

[8] = Overall stability (formation) constants of Zn(II) complexes by UV–vis spectrophotometric titrations; format: physicochemical; details: I = 0.1 M KCl, t = 25.0 °C; for log β (ZnL2): bis-ligand Zn(II) complex; for log β (ZnL): mono-ligand Zn(II) complex
Description: as §3

[9] = Stability in aqueous HEPES buffer (5% DMSO) by UV–vis; format: physicochemical; details: HEPES 10 mM pH 7.4 with 5% (v/v) DMSO; 100–135 μM; 24 h
Description: Stock solutions of each complex were freshly prepared in DMSO and diluted with HEPES buffer (10 mM, pH 7.4), ensuring that the organic solvent content was less than 5% (v/v). The samples were monitored by UV–vis absorption spectrophotometry for 6 consecutive hours, and a final measurement was done after 24 h.

[10] = Stability by 1H NMR in DMSO-d6 or 30% DMSO-d6/H2O; format: physicochemical; details: 1 mM
Description: A Bruker Avance III HD Ascend 500 Plus instrument (Billerica, MA) was used for NMR spectroscopic titrations and time-dependent studies applying a WATERGATE water suppression pulse scheme in the presence of 10% (v/v) D2O/H2O, and the sodium trimethylsilylpropanesulfonate (DSS) standard was added to samples as the internal reference. ^1H NMR titrations were carried out for the ligand precursors in the presence of 0.1 M KCl. For free ligands and complexes’ stability measurements, ^1H NMR spectra were recorded in DMSO-d6 or 30% (v/v) DMSO-d6/H2O.

A375 cells = assay: Guava ViaCount assay by flow cytometry; format: cell-based, human; details: A375, 48 h; Zn(L2)2 at 15 μM, Cu2(L2)4 at 12 μM
Description: For the Guava ViaCount assay, A375 cells were plated at a concentration of 8 × 10^4 cells/mL in 24-well plates (1 mL/well) and cultured for 24 h in the culture conditions described above.[23] Cells were then incubated with Zn(L2)2 and Cu2(L2)4 at concentrations of 15 and 12 μM, respectively. The positive control, dacarbazine (DTIC), was tested at 70 μM. Cells in the presence of complete culture medium constituted the negative control group. After an incubation period of 48 h, cell culture supernatants were collected, and adherent cells were detached using TrypLEExpress (Invitrogen). Detached cells were then added to supernatants, and the wells were washed using PBS with 2% FBS to recover any remaining cells. The recovered suspension was centrifuged for 5 min at 700 g. The supernatants were discarded, and cells were suspended in PBS with 2% FBS. Then, on a 96-well plate, 20 μL of cell suspension was incubated with 180 μL of Guava ViaCount reagent (Merck Millipore, Darmstadt, Germany) for 5 min at r.t. Using a Guava EasyCyte 5HT Flow cytometer (Guava Technologies, Inc., Hayward, CA), data were collected and analyzed with the ViaCount software module with an acquisition of 10,000 events per sample. GraphPad Prism8 was used to analyze cell proliferation (GraphPad Software, San Diego, CA). One experiment was carried out, with three replicates per condition.

[11] = quinolinium nitrogen, read-out: pKa (NqH+)
[12] = Homo sapiens, A-375, A375, 48 h incubation

| Structure (SMILES) | log D7.4 [1] | Thermodynamic solubility S7.4 [2] | IC50 ([4]; A375, 48 h incubation) | pKa ([6]; phenol OH, read-out: pKa (OH)) | pKa [6, 11] | log β (CuL2) [7] | log β (CuL) [7] | log β (ZnL2) [8] | log β (ZnL) [8] | logD at 3 h [1] | IC50 [4, 12] | stability in aqueous media [9] | IC50 [5] | Selectivity index (SI) [5] | IC50 ([5]; Homo sapiens) | other results |
| --- | --- | --- | --- | --- | --- | --- | --- | --- | --- | --- | --- | --- | --- | --- | --- | --- |
| N.N.[Cl][Pt][Cl] [Cisplatin] |  |  |  |  |  |  |  |  |  |  |  |  |  |  |  | IC50 (melanoma cell line A375): 10.9 ± 1.3 µM |
| [Cu+2].[O-]c1cccc2ccc(/C=N/CCCN3CCOCC3)nc12.[O-]c1cccc2ccc(/C=N/CCCN3CCOCC3)nc12 [Cu(L3)2] | >1.5 | 1821 µM | 6.7 ± 0.2 µM |  |  |  |  |  |  |  |  |  | 8.1 ± 0.2 µM | 1.2 |  | Stern–Volmer quenching constant KSV ([3]; fit at low quencher concentrations, HEPES pH 7.4): (2.20 ± 0.07) × 10^5 M^–1; % quenching ([3]; molar ratio complex:BSA = 10, λexc = 295 nm): 48% |
| [O-]c1cccc2ccc(/C=N/CCN3CCCCC3)nc12.[O-]c1cccc2ccc(/C=N/CCN3CCCCC3)nc12.[Zn+2] [Zn(L1)2] | >1.5 | 694 µM | 9.1 ± 1.5 µM |  |  |  |  |  |  |  |  | did not show signs of decomposition | 22.3 ± 0.7 µM | 2.5 |  | period the 1H NMR spectra remained unchanged [10]: 8 days |
| [O-]c1cccc2ccc(/C=N/CCN3CCOCC3)nc12.[O-]c1cccc2ccc(/C=N/CCN3CCOCC3)nc12.[Zn+2] [Zn(L2)2] | +0.86 ± 0.09 | 1674 µM | 10.3 ± 1.6 µM |  |  |  |  |  |  |  |  | did not show signs of decomposition | 24.4 ± 0.6 µM | 2.4 |  | percentage of dead and apoptotic cells (A375 cells): 10% |
| [O-]c1cccc2ccc(/C=N/CCCN3CCOCC3)nc12.[O-]c1cccc2ccc(/C=N/CCCN3CCOCC3)nc12.[Zn+2] [Zn(L3)2] | >1.5 | 87 µM | 9.3 ± 1.1 µM |  |  |  |  |  |  |  |  | suggests hydrolysis; also recorded: significant hydrolysis | 26.3 ± 0.7 µM | 2.8 |  |  |

The next lines start with results.

| log D7.4 [1] | Thermodynamic solubility S7.4 [2] | IC50 ([4]; A375, 48 h incubation) | pKa ([6]; phenol OH, read-out: pKa (OH)) | pKa [6, 11] | log β (CuL2) [7] | log β (CuL) [7] | log β (ZnL2) [8] | log β (ZnL) [8] | logD at 3 h [1] | IC50 [4, 12] | stability in aqueous media [9] | Structure (SMILES) | IC50 [5] | Selectivity index (SI) [5] | IC50 ([5]; Homo sapiens) | other results |
| --- | --- | --- | --- | --- | --- | --- | --- | --- | --- | --- | --- | --- | --- | --- | --- | --- |
|  |  |  | 8.77 ± 0.03 | 2.8 ± 0.03 | 15.60 ± 0.02 | 8.36 ± 0.01 | 14.42 ± 0.01 | 6.90 ± 0.03 | 0.63 | 15.2 ± 0.2 µM |  | Oc1cccc2ccc(/C=N/CCN3CCCCC3)nc12 [L1] |  |  | > 30 µM |  |
|  |  |  | 8.84 ± 0.03 | 2.83 ± 0.03 | 15.77 ± 0.03 | 7.98 ± 0.02 | 14.32 ± 0.02 | 6.86 ± 0.04 | 0.64 | 15.9 ± 0.1 µM |  | Oc1cccc2ccc(/C=N/CCN3CCOCC3)nc12 [L2] |  |  | > 30 µM |  |
|  |  |  | 8.78 ± 0.03 | 2.77 ± 0.03 | 15.57 ± 0.01 | 8.34 ± 0.01 | 13.68 ± 0.04 | 6.87 ± 0.01 | 0.76 | 25.8 ± 0.3 µM |  | Oc1cccc2ccc(/C=N/CCCN3CCOCC3)nc12 [L3] |  |  | > 30 µM |  |
